# According to ChEMBL document CHEMBL4627304, “DNA sequence-specific ligands. XVIII. Synthesis, physico-chemical properties; genetic, virological, and biochemical studies of fluorescent dimeric bisbenzimidazoles DBPA(n)” (Bioorg Med Chem, 2020):
# Activity calls are given as the source filed them. No cut-off for these calls is given here.
# Columns and labels:
# [1] = molecular target: Human immunodeficiency virus type 1 integrase (Human immunodeficiency virus 1, UniProt Q7ZJM1); assay: Inhibition of recombinant HIV1 integrase expressed in Escherichia coli Rosetta assessed as reduction in 3' end processing activity using [32P]-labelled U5B/U5A DNA as substrate measured after 2 hrs by polyacrylamide gel electrophoresis method
# Calf thymus DNA [2] = assay: Binding affinity to calf thymus DNA by fluorescence spectra analysis; type: nucleic-acid assay; settings: Bos taurus
# Aliivibrio fischeri [3] = assay: Binding affinity to Aliivibrio fischeri H-NS dependent Prf promoter assessed as luminescence intensity measured after 3 hrs by bioluminescence assay relative to control
# Aliivibrio logei [4] = assay: Binding affinity to Aliivibrio logei H-NS dependent Pr2 promoter assessed as luminescence intensity measured after 3 hrs by bioluminescence assay relative to control
# [5] = (§1) Selectivity index, ratio of CC50 for cytotoxicity against African green monkey Vero cells assessed as reduction in cell viability measured after 72 hrs by MTT assay to EC50 for antiviral activity against Herpes simplex virus 1 infected in African green monkey vero cells assessed as reduction in plaque formation treated 1 hr post viral infection; type: toxicity, cell-based; settings: read-out: Ratio CC50/EC50
# Human alphaherpesvirus 1 = assay: Antiviral activity against Herpes simplex virus 1 infected in African green monkey vero cells assessed as reduction in plaque formation treated 1 hr post viral infection by plaque reduction assay; type: functional, organism-based; settings: Human alphaherpesvirus 1, Vero
# [6] = Cytotoxicity against human NKE cells assessed as reduction in cell viability by MTT assay; type: cell-based
# Calf thymus DNA [7] = assay: Binding affinity to calf thymus DNA assessed as appearance of positive band by cholesteric liquid crystal dispersion-based circular dichroism method; type: nucleic-acid assay; settings: Bos taurus
# [8] = Solubility of the compound in water; type: physicochemical; settings: buffer
# [9] = molecular target: T1, Transcriptional activator protein LuxR (Aliivibrio fischeri) (UniProt P12746); assay: (§2) Inhibition of Aliivibrio fischeri LuxR quorum sensing system expressed in Escherichia coli MG1655 pVFR1 harboring Prf promoter assessed as reduction in LuxR transcriptional activity by measuring Lux gene expression in presence of LuxR protein activator and presence of 10^-6 M AHL by bioluminescence assay relative to control
# T1 sequence (whole entry): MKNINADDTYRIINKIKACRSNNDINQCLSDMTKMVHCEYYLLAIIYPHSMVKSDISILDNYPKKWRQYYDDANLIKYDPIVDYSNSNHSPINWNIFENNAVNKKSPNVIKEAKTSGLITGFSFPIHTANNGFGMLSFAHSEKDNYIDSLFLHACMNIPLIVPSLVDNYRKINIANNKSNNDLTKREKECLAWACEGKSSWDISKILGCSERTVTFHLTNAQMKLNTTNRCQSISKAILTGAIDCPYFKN
# HCT-116 = assay: Cytotoxicity against human HCT116 cells assessed as reduction in cell viability by MTT assay; type: cell-based
# Aliivibrio fischeri [10] = assay: Binding affinity to Aliivibrio fischeri H-NS dependent PluxC promoter assessed as luminescence intensity measured after 3 hrs by bioluminescence assay relative to control
# [11] = molecular target: T1, Transcriptional activator protein LuxR (Aliivibrio fischeri); assay: as §2, with “10^-8” for “10^-6”
# [12] = molecular target: T1, Transcriptional activator protein LuxR (Aliivibrio fischeri); assay: as §2, with “10^-7” for “10^-6”
# [13] = molecular target: T1, Transcriptional activator protein LuxR (Aliivibrio fischeri); assay: as §2, with “and absence” for “and presence”, “of” for “of 10^-6 M”
# [14] = as §1, with “Vero” for “vero”, “pretreated with compound for” for “treated”, “followed by” for “post”, “infection at 0.01 PFU/cells for 1 hr by plaque reduction assay” for “infection”; type: toxicity, cell-based; settings: read-out: Ratio CC50/EC50
# Aliivibrio logei [15] = assay: Binding affinity to Aliivibrio logei H-NS dependent Pr1 promoter assessed as luminescence intensity measured after 3 hrs by bioluminescence assay relative to control
# Calf thymus DNA [16] = assay: Binding affinity to calf thymus DNA assessed as hyperchromic effect by UV-Vis spectroscopy; type: nucleic-acid assay; settings: Bos taurus
# [17] = Drug penetration in human HCT116 cells nucleus at 200 uM measured after 2 days by fluorescence microscopy; type: ADME, subcellular; settings: hct-116, 48 h
# MCF7 = assay: Cytotoxicity against human MCF7 cells assessed as reduction in cell viability by MTT assay; type: cell-based
# Human immunodeficiency virus type 1 integrase, sequence (Q7ZJM1 whole entry): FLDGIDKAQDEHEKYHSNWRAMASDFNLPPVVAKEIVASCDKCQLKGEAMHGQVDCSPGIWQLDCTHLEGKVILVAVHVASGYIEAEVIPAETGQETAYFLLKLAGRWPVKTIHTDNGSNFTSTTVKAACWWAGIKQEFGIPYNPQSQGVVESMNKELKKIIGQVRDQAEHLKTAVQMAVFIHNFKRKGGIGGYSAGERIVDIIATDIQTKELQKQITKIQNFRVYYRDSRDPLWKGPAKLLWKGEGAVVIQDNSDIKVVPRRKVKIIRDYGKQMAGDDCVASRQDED
SMILES,IC50 [1] [nM],Activity (Calf thymus DNA [2]),Flu intensity (Aliivibrio fischeri [3]),Flu intensity (Aliivibrio logei [4]),selectivity ratio at 72 h [5],EC50 (Human alphaherpesvirus 1) [µg/mL],IC50 [6] [µM],Activity (Calf thymus DNA [7]),solubility [8],fold change (FC) [9],IC50 (HCT-116) [µM],Flu intensity (Aliivibrio fischeri [10]),fold change (FC) [11],fold change (FC) [12],fold change (FC) [13],selectivity ratio at 72 h [14],Flu intensity (Aliivibrio logei [15]),Activity (Calf thymus DNA [16]),Drug uptake [17],IC50 (MCF7) [µM]
CN1CCN(c2ccc3nc(-c4ccc5nc(CNC(=O)CN6CCN(CC(=O)NCc7nc8ccc(-c9nc%10ccc(N%11CCN(C)CC%11)cc%10[nH]9)cc8[nH]7)CC6)[nH]c5c4)[nH]c3c2)CC1,> 15000,,,,,,,,,,,,,,,,,,,
CN1CCN(c2ccc3nc(-c4ccc5nc(CNC(=O)CCCN6CCN(CCCC(=O)NCc7nc8ccc(-c9nc%10ccc(N%11CCN(C)CC%11)cc%10[nH]9)cc8[nH]7)CC6)[nH]c5c4)[nH]c3c2)CC1,9900,,,,,,,,,,,,,,,,,,,
CN(C)CCCNC(=O)c1ccc2nc(-c3ccc4nc(CNC(=O)CCN5CCN(CCC(=O)NCc6nc7ccc(-c8nc9ccc(C(=O)NCCCN(C)C)cc9[nH]8)cc7[nH]6)CC5)[nH]c4c3)[nH]c2c1,2600,Active,122000,150000,18,30,> 300,Active,Soluble,8,> 300,110000,1,3,27,703,210000,Active,Active,> 300
CN1CCN(c2ccc3nc(-c4ccc5nc(CNC(=O)CCCCN6CCN(CCCCC(=O)NCc7nc8ccc(-c9nc%10ccc(N%11CCN(C)CC%11)cc%10[nH]9)cc8[nH]7)CC6)[nH]c5c4)[nH]c3c2)CC1,3900,,,,,,,,,,,,,,,,,,,
CN(C)CCCNC(=O)c1ccc2nc(-c3ccc4nc(CNC(=O)CCCCN5CCN(CCCCC(=O)NCc6nc7ccc(-c8nc9ccc(C(=O)NCCCN(C)C)cc9[nH]8)cc7[nH]6)CC5)[nH]c4c3)[nH]c2c1,1100,,4300,1800,34,31,> 500,Active,Soluble,,> 500,3500,,,,,1000,Active,Active,> 500
CN(C)CCCNC(=O)c1ccc2nc(-c3ccc4nc(CNC(=O)CCCN5CCN(CCCC(=O)NCc6nc7ccc(-c8nc9ccc(C(=O)NCCCN(C)C)cc9[nH]8)cc7[nH]6)CC5)[nH]c4c3)[nH]c2c1,1800,Active,4400,50000,70,15,> 500,,Soluble,,> 500,17000,,,,95,3300,,Active,> 500
CN(C)CCCNC(=O)c1ccc2nc(-c3ccc4nc(CNC(=O)CN5CCN(CC(=O)NCc6nc7ccc(-c8nc9ccc(C(=O)NCCCN(C)C)cc9[nH]8)cc7[nH]6)CC5)[nH]c4c3)[nH]c2c1,2100,,4100,18000,34,16.7,> 200,,Soluble,,> 200,38000,,,,5750,1700,,Active,> 200
Nc1nc2c(ncn2COCCO)c(=O)[nH]1 [ACYCLOVIR],,,,,916,1.2,,,,,,,,,,86,,,,
CN1CCN(c2ccc3nc(-c4ccc5nc(CNC(=O)CCN6CCN(CCC(=O)NCc7nc8ccc(-c9nc%10ccc(N%11CCN(C)CC%11)cc%10[nH]9)cc8[nH]7)CC6)[nH]c5c4)[nH]c3c2)CC1,7000,,,,,,,,,,,,,,,,,,,
CN(C)CCCNC(=O)c1ccc2nc(-c3ccc4nc(CN)[nH]c4c3)[nH]c2c1,,,,,35,27,,,,,,,,,,11,,,,
